What was measured:
[1] = target: T1, human monoamine oxidase A (hMAO-A) (Homo sapiens, UniProt P21397); experiment: MAO-Glo luminescent assay with recombinant enzyme; Michaelis-Menten/Lineweaver-Burk kinetics (IC50 […]); type: biochemical
T1 construct: gene MAOA
T1 sequence (P21397 1-527): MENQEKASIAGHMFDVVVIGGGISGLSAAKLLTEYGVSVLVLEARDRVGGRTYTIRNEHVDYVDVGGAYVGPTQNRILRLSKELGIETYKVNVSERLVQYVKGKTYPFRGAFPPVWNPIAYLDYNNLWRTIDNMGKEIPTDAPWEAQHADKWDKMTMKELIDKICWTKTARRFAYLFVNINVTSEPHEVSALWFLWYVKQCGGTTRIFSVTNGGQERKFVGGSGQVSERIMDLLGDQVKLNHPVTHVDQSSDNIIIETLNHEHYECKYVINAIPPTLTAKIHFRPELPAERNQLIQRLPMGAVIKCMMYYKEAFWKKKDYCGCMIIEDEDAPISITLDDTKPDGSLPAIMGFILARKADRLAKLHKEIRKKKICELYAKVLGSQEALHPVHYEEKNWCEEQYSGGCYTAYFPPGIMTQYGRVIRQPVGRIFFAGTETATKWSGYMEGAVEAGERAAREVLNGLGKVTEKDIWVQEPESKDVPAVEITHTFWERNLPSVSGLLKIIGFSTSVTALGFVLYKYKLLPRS

[2] = target: T2, human monoamine oxidase B (hMAO-B) (Homo sapiens, UniProt P27338); experiment: as above; type: biochemical
T2 construct: gene MAOB
T2 sequence (P27338 2-520): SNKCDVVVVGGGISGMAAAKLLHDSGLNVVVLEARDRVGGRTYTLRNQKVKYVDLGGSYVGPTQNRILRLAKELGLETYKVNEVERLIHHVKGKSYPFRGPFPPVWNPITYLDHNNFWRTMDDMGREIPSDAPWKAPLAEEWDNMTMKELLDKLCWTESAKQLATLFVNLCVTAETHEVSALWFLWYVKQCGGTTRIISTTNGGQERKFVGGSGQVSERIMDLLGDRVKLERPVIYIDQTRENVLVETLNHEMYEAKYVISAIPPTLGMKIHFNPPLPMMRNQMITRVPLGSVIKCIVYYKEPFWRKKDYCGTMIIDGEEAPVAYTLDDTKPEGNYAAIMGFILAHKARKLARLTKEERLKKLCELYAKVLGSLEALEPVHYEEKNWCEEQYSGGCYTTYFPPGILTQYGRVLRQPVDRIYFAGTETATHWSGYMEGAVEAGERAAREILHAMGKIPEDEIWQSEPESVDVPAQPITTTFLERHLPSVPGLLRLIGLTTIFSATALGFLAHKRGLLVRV

## COc1cc2c(cc1CC=C(C)C)C(=O)C[C@@H](c1ccc(O)cc1)O2 [BNN, 4′-hydroxy-7-methoxy-6-(3-methyl-2-butenyl) flavanone]
[1]
  Ki: 95.3 µM
[2]
  Ki: 9.22 µM
